Measured values as given in PubChem BioAssay AID179 (DTP/NCI, 2004).
Calls of active or inactive are those of the source.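 The calls were made as follows: active = compounds giving half or more protection of infected cells from virus-caused growth loss, again on retest; inactive = the rest.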

Tested on: CEM cells HIV-1 protection, formazan growth assay
Test: NCI AIDS Antiviral Assay
Details: for IC50: measured here: growth of uninfected CEM cells
How it was run: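 Protection of CEM cells against HIV-1 measured as cell growth via soluble formazan read-out, with five concentrations tested on both infected and uninfected cells; failure to protect may reflect toxicity.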

Row | SMILES | EC50 | IC50 | outcome
1 | O=C(O)C(=Cc1ccc(-c2ccccc2)cc1)C(=O)O | > 251 µM | 15.5 µM | 
2 | O=C(O)c1cccc(/C=C/c2ccc(N=Nc3c(O)cc(O)cc3C(=O)O)cc2C(=O)O)c1 | > 200 µM | 158 µM | 
3 | COc1cc2oc(=O)cc(C)c2c(OC)c1OC | > 200 µM | > 200 µM | 
4 | O=P(O)(O)C(NCC(O)CN1CCOCC1)P(=O)(O)O (stereo unspecified) | > 200 µM | > 200 µM | 
5 | COC(=O)C(=O)C(C(=O)C(=O)Nc1cc(Cl)c(Cl)cc1Cl)c1nc2ccc([N+](=O)[O-])cc2[nH]c1=O (stereo unspecified) | > 457 µM | 95.5 µM | 
6 | CC(C)=CCS(=O)c1ccccc1NC1=CC(=O)CC(C)(C)C1 (stereo unspecified) |  |  | inactive
7 | CCN(c1ccccc1)c1nc(N)nc(NS(=O)(=O)c2cc(C)c(Cl)cc2S)n1 | 70.8 µM | > 200 µM | 
8 | O=C1OC2c3ccccc3C(=O)C2(c2ccccc2)N1c1ccccc1 (stereo unspecified) | > 200 µM | 126 µM | 
9 | Cc1oc2cc(O)ccc2c(=O)c1-c1ccccc1Br | > 200 µM | 16.6 µM | 
10 | CCOC(=O)C1Sc2ccccc2N=C1C (stereo unspecified) | > 30.9 µM | > 30.9 µM | 
11 | CC1(C)CCc2cc3c(cc2O1)OCC1c2cc4c(cc2OC31)OCO4 (stereo unspecified) |  |  | inactive
12 | O=[N+]([O-])c1ccc(C2=NOC(c3ccccc3F)N2C23CC4CC(CC(C4)C2)C3)cc1 (stereo unspecified) | 195 µM | > 200 µM | 
13 | Cc1nc2nn(C)cc2c(=O)n1/N=C/c1ccccc1 | > 200 µM | > 200 µM | 
14 | C[C@H](Nc1nc(N)c(N=O)c(=O)n1C)C(=O)O | > 200 µM | > 200 µM | 
15 | COC(=O)/N=[N+](\[O-])C(c1ccccc1)c1ccccc1 | > 200 µM | 191 µM | 
16 | COC(=O)[C@H]1[C@H](OC(=O)[C@@H](OC)c2ccccc2)ON2CC[C@@H](OC(=O)c3ccccc3)[C@H]12 | > 200 µM | 178 µM | 
17 | O=C1c2ccccc2C(=O)c2cscc21 | > 77.6 µM | 18.6 µM | 
18 | Cn1c(=O)c(-c2ccccc2)c(N=[N+]=[N-])c2ccccc21 | > 200 µM | 135 µM | 
19 | COc1nc(=O)n(C2CC(N=[N+]=[N-])C(CO)O2)cc1C (stereo unspecified) | 17.4 µM | > 200 µM | 
20 | CC12CN3CC(C)(C1=O)C(=O)C(C)(C3)C2=O | > 117 µM | > 117 µM | 
21 | CC1Oc2c(c(O)cc3oc(=O)cc(-c4ccccc4)c23)C(=O)C1C (stereo unspecified) |  |  | inactive
22 | O=C1c2ccccc2C(=O)N1CC(O)COc1cccc2ccccc12 (stereo unspecified) | > 200 µM | > 200 µM | 

Row | SMILES | EC50 | IC50 | outcome
23 | CC1(C)C2CCC(CN=C(N)CSS(=O)(=O)O)C1C2 (stereo unspecified) | > 200 µM | 33.1 µM | 
24 | CCOC(=O)C1=C(C)N(Cc2ccccc2)C(C)=C(C(=O)OCC)C1c1ccccc1O | > 16.6 µM | > 16.6 µM | 
25 | CC(C)CN(CC(C)C)CN1C(=O)/C(=C/c2ccc([N+](=O)[O-])cc2)SC1=S | > 200 µM | 15.8 µM | 
26 | O=[N+]1[C@H](c2ccccc2)[C@H](c2ccccc2)N1[O-] | > 200 µM | 11.5 µM | 
27 | CC(=O)Nc1sc([N+](=O)[O-])cc1S(=O)(=O)c1ccc(Cl)cc1 | > 200 µM | 1.48 µM | 
28 | Cc1cc(C2(O)C=C(C(C)(C)C)C(=O)C(C(C)(C)C)=C2)c(C)cc1C1(O)C=C(C(C)(C)C)C(=O)C(C(C)(C)C)=C1 | > 151 µM | > 151 µM | 
29 | Cc1cn(C2CC(N=[N+]=[N-])C(COP(=O)(OCC(=O)C(C)(C)C)OCC(=O)C(C)(C)C)O2)c(=O)[nH]c1=O (stereo unspecified) | 0.0011 µM | 2 µM | 
30 | CCOC(=O)C1(Cc2ccccc2)Cc2cc3c(cc2C1=O)CCC3 (stereo unspecified) | > 200 µM | 14.8 µM | 
31 | CC1NC(=O)C2=C1C(N)=NC(=O)C2 (stereo unspecified) | > 1000 µM | > 1000 µM | 
32 | CC(SSC(C)N1C(=O)c2ccccc2C1=O)N1C(=O)c2ccccc2C1=O (stereo unspecified) | > 100 µM | > 100 µM | 
33 | COc1ccc(/C=C2\CCC(C)C3=C2NC(=S)NC3c2ccc(OC)c(OC)c2)cc1OC (stereo unspecified) | > 200 µM | 11.2 µM | 
34 | O=C1/C(=C/c2cccc([N+](=O)[O-])c2)CCCc2ccccc21 | > 200 µM | 6.31 µM | 
35 | Cc1cccc2c1Oc1cc(Cl)ccc1C2NC(=O)CCN1CCN(CCO)CC1 (stereo unspecified) | > 200 µM | 13.5 µM | 
36 | CCOC(=O)c1nc2ccc(C(F)(F)F)cc2nc1Oc1ccc(F)cc1 | > 200 µM | > 200 µM | 
37 | O=C1C2C3C=C4c5ccccc5N(c5ccccc5)C4(C2C(=O)N1Cc1ccccc1)C1C(=O)N(Cc2ccccc2)C(=O)C31 (stereo unspecified) |  |  | inactive
38 | O=C(O)c1c2c(cc3c(=O)cc(-c4ccccc4)oc13)CCCC2 |  |  | inactive
39 | CC(=O)OCC1=C(C)C[C@H]([C@@H](COC(C)=O)C2CCC3C4C[C@H]5O[C@]56CC=CC(=O)[C@]6(C)C4CC[C@@]32C)OC1=O (stereo partly specified) | > 200 µM | 0.135 µM | 
40 | Cc1ccc2nc3nc(C)c(C)nc3nc2c1 | 1.15 µM | 14.5 µM | 
41 | CC/C(C)=C1/CC(C)(C)N=C1C | > 200 µM | 89.1 µM | 
42 | C/C(C=C(C#N)C#N)=C\c1ccc(C)cc1 | > 1200 µM | > 1200 µM | 
43 | CCCC(CC)c1cc(O)c(O)cc1C(CC)CCC (stereo unspecified) | > 200 µM | 105 µM | 
